Values of other authors, collected in US5084277A, “Vaginal progesterone tablet” (priority 1990, dated 1992).

Key:
[1] = not given; remark: listed apart in the source

CC(=O)[C@H]1CC[C@H]2[C@@H]3CCC4=CC(=O)CC[C@]4(C)[C@H]3CC[C@]12C [progesterone, pregn-4-ene-3,20-dione]
Tolerability of parenteral administration (deep intramuscular injections): often very painful and irritating at the site of injection | Serum levels after oral administration (in vivo, po): significant but highly variable serum levels | Absorption by the rectal route (rectal): highly variable | Plasma half-life of endogenous progesterone ([1]; endogenous): a few minutes | Storage of progesterone in body fat ([1]; in vivo): A small amount of progesterone is stored in body fat | Time within which all exogenous progesterone is metabolized ([1]; suggested by Myers et al.): ≤ 24 h
